Data on 7 compounds can be found in ChEMBL document CHEMBL3217588, “Discovery and activity profiling of thailandepsins A through F, potent histone deacetylase inhibitors, from Burkholderia thailandensis E264” (Medchemcomm, 2012).

One assay concerns the target Histone deacetylase 1 (Homo sapiens, UniProt Q13547). As to the kind of experiment: Inhibition of human recombinant HDAC1 after 1 hr by luminescence assay.
Another assay addresses Histone deacetylase 4 (Homo sapiens, UniProt P56524). As to the kind of experiment: Inhibition of human recombinant HDAC4 after 1 hr by luminescence assay.
Assay [1] deals with T1, Protein deacetylase HDAC6 (Homo sapiens, UniProt Q9UBN7).
T1 sequence (Q9UBN7 whole entry): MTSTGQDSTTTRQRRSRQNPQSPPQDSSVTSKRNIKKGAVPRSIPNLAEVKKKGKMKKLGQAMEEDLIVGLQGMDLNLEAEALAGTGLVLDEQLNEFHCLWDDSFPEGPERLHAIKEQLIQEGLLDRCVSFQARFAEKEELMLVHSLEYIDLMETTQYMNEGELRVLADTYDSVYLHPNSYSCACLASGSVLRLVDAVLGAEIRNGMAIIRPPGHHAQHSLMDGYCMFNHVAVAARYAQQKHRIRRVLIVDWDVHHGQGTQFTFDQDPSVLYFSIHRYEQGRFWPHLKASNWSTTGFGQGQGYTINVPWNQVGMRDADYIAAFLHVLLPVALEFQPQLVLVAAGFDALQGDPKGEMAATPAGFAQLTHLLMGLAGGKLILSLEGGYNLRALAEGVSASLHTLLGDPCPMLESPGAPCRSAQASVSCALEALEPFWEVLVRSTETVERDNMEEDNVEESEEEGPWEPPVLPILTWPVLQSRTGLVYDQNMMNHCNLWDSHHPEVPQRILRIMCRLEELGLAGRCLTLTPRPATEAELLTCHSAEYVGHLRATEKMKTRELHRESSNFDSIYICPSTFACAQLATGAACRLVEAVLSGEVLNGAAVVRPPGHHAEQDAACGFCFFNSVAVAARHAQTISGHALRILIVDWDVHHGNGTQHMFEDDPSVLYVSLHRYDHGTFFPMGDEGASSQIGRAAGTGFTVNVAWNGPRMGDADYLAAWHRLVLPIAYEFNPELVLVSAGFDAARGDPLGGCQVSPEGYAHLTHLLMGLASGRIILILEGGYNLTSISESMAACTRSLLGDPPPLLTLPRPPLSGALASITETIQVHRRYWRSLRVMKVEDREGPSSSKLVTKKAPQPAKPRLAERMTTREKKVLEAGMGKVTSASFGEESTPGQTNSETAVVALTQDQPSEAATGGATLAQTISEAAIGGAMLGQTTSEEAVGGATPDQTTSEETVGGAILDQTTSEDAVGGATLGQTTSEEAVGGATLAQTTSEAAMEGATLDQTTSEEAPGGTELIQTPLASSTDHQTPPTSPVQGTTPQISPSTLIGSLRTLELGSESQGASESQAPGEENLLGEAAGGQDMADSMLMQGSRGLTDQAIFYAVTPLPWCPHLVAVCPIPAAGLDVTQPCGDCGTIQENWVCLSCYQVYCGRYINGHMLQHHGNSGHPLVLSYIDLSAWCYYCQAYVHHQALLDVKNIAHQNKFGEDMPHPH
As to the kind of experiment: Inhibition of human recombinant HDAC6 after 1 hr by luminescence assay.

Sequence of Histone deacetylase 1 (Q13547 whole entry): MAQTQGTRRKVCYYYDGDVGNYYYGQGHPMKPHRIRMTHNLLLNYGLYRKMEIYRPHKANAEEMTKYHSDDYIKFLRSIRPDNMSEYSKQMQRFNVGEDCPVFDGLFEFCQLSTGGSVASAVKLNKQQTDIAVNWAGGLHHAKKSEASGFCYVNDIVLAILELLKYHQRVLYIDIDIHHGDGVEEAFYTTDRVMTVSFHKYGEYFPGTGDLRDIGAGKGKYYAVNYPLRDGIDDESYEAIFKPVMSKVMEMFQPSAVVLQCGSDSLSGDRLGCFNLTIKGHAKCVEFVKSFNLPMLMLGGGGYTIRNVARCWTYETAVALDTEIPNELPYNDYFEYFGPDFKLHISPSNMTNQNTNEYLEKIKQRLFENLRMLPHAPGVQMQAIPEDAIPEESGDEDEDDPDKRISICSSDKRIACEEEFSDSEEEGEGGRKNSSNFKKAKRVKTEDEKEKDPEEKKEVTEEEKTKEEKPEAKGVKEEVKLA
Sequence of Histone deacetylase 4 (P56524 whole entry): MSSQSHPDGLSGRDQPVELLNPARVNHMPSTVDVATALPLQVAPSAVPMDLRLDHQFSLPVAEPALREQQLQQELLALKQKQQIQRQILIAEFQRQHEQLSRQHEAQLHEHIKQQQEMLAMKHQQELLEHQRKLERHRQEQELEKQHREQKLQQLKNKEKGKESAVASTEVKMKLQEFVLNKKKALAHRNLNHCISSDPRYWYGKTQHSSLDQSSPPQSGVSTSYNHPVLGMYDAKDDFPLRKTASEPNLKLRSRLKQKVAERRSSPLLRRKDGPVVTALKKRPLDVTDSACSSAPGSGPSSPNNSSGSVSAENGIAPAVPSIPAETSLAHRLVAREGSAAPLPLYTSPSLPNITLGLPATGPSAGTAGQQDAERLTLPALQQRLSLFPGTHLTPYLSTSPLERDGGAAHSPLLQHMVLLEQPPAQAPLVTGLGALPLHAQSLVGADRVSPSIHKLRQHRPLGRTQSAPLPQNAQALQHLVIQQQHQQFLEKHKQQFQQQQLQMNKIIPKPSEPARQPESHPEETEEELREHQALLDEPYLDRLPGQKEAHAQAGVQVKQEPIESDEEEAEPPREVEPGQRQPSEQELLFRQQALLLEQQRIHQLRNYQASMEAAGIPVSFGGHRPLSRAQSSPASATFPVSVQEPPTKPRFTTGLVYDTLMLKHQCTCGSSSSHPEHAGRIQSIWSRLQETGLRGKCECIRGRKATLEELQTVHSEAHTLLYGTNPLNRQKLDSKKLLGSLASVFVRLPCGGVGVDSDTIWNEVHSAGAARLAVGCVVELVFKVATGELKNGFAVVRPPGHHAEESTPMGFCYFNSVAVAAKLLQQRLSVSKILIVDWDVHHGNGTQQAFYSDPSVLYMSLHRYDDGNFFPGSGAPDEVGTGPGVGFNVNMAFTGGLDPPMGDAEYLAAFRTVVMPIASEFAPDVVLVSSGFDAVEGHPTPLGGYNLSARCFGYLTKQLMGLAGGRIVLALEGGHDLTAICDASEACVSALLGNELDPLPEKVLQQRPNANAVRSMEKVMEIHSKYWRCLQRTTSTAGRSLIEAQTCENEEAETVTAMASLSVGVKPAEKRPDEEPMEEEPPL

Take `CCCC[C@H]1NC(=O)C[C@H]2/C=C/CCSSC[C@@H](NC1=O)C(=O)N[C@H](CC(C)C)[C@@H](O)CC(=O)O2`: the IC50 worked out at 0.0026 µM on Histone deacetylase 1, 132 µM on Histone deacetylase 4 and 1.92 µM in assay [1].

For `CSCC[C@H]1NC(=O)C[C@H]2/C=C/CCSSC[C@@H](NC1=O)C(=O)N[C@H](C(C)C)[C@@H](O)CC(=O)O2`, the figures for the IC50 (at Histone deacetylase 1; at Histone deacetylase 4; in assay [1]) were 0.0002 µM, 38 µM and 0.78 µM, respectively.

Regarding `CCCC[C@H]1NC(=O)C[C@H]2/C=C/CCSSC[C@@H](NC1=O)C(=O)N[C@H]([C@@H](C)CC)[C@@H](O)CC(=O)O2` [THAILANDEPSIN B], the results for the IC50 (on Histone deacetylase 1; at Histone deacetylase 4; in assay [1]) were 0.0012 µM, 57.4 µM and 1.19 µM, respectively.

Turning to `CC[C@H](C)[C@H]1NC(=O)[C@H]2CSSCC/C=C/[C@H](CC(=O)N[C@H](CCSC)C(=O)N2)OC(=O)C[C@@H]1O` [THAILANDEPSIN A], the IC50 at Histone deacetylase 1 was 0.00028 µM; on Histone deacetylase 4, 37.2 µM; in assay [1], 0.83 µM.

`CSCC[C@H]1NC(=O)C[C@H]2/C=C/CCSSC[C@@H](NC1=O)C(=O)N[C@H](CC(C)C)[C@@H](O)CC(=O)O2`: the IC50 was 0.00094 µM on Histone deacetylase 1, 58.9 µM at Histone deacetylase 4 and 1.68 µM in assay [1].

As to `CCCC[C@H]1NC(=O)C[C@H]2/C=C/CCSSC[C@@H](NC1=O)C(=O)N[C@H](C(C)C)[C@@H](O)CC(=O)O2`, the IC50 at Histone deacetylase 1 stood at 0.00048 µM; on Histone deacetylase 4 it was 47 µM; in assay [1], 0.93 µM.

With `C/C=C1\NC(=O)[C@H]2CSSCC/C=C/[C@H](CC(=O)N[C@H](C(C)C)C(=O)N2)OC(=O)[C@H](C(C)C)NC1=O` [ROMIDEPSIN], the IC50 at Histone deacetylase 4 turned out to be 8.67 µM.

The IC50 is the concentration at which inhibition is half-maximal.
